Experimental data taken from patent publication US6673902B2, “Cyclin D binding factor, and uses thereof” (St. Jude Children's Research Hospital, priority 1996, dated 2004).

Legend:
ARF-null MEFs = experiment: BrdU incorporation / cell cycle arrest in ARF-null MEFs; type: cell-based, mouse; conditions: retroviral infection
Procedure: BrdU incorporation and immunofluorescence. Wild-type or ARF-null MEFs (4×10^4 cells) were seeded on gelatin-coated coverslips 16 hours before virus infection. Cells were infected three times with empty vector, or vectors expressing murine DMP1, human c-Myc, human E2F-1, or human Ets1. Cells were labeled 36 hours after virus infection with bromodeoxyuridine (BrdU, Sigma) for 14 hours in complete medium. For pulse labeling, MEFs were treated with 2 μM4-HT for 36 hours and labeled with BrdU for three hours at different intervals throughout the inductive phase. Cells were fixed in ice-cold methanol-acetone (1:1) for 10 min at −20° C. and then were stained with affinity-purified antibodies to DMP1 (AF) [Hirai and Sherr, Mol. Cell. […]
Based on the above observations, it was determined as to whether introduction of DMP1 would induce synthesis of the endogenous ARF protein in normal diploid fibroblast strains. […] Although the blot was normalized for protein input, the levels of p19^ARF induced by DMP1 were calculated to be 2-fold higher than those induced by Myc, because fewer cells were productively infected with the DMP1 virus in this experiment (see FIG. 15A).

wild-type MEFs = experiment: Apoptosis assay in wild-type MEFs deprived of serum; type: cell-based, mouse
Procedure: Apoptosis assays. Wild-type MEFs infected with the indicated retroviruses for 36 hours were starved for serum for 24 hours. Viability was determined by trypan blue dye exclusion, and DNA fragmentation was monitored by a terminal deoxynuclectidyl transferase (FACS-TUNEL) assay and by measurement of subdiploid DNA content of propidium iodide-stained nuclei [Zindy et al., Genes Dev. 12:2424-2433 (1998)].
On the other hand, MEFs overexpressing c-Myc, E2F-1, or E1A are exquisitely sensitive to apoptosis. […] 12:2424-2433 (1998); De Stanchina et al., Genes Dev. 12:2434-2442 (1998)].

In the case of “DMP1: murine cyclin D-associated myb-like transcription factor, 761 amino acids, SEQ ID NO:1”, the cell cycle arrest (ARF-null MEFs) is reported as “refractory” and the “apoptosis / cell death” value (wild-type MEFs) is reported as “did not trigger apoptosis”.
